Reference: PMC4095797 (Proteins, 2013)

Tests used:
Type in all cases: binding
RPD1889 = RPD1889 (Rhodopseudomonas palustris, UniProt Q139W5); test: fluorescence thermal shift; conditions: 10 μM protein, 1000 μM ligand; HEPES pH 7.5; pre-bound ligand present
BLR7848 = BLR7848 (Bradyrhizobium diazoefficiens, UniProt Q89CE9); test: fluorescence thermal shift; conditions: 10 μM protein, 1000 μM ligand; HEPES pH 7.5
RPD1520 [1] = target: T1, RPD1520 (Rhodopseudomonas pseudopalustris, UniProt A0A1H8UI63); test: intrinsic tryptophan fluorescence quenching; conditions: excitation 275 nm; single-site fit; unit of KD printed as M^-1 (M meant)
RPD1520 [2] = target: T1, RPD1520; test: fluorescence thermal shift; conditions: 10 μM protein, 1000 μM ligand; HEPES pH 7.5
RPB3575 = RPB3575 (Rhodopseudomonas palustris, UniProt Q2IU40); test: X-ray crystal structure; conditions: co-crystallisation; SeMet protein; 1.70 Å
RPA1789 = RPA1789 (Rhodopseudomonas palustris, UniProt Q6N8W4); test: X-ray crystal structure; conditions: co-crystallisation; SeMet protein; 1.60 Å

| Compound | dTm (RPD1889) | dTm (BLR7848) | dTm (RPD1520 [2]) | other results |
| --- | --- | --- | --- | --- |
| O=C(O)/C=C/c1ccc(O)c(O)c1 [CAF, caffeic acid] | (p- coumaric acid, caffeic acid) produce the maximal observed thermal shifts | (p- coumaric acid, caffeic acid) produce the maximal observed thermal shifts | – | – |
| O=C(O)C(=O)c1ccccc1 [BZF, benzoylformic acid] | – | – | – | KD (RPD1520 [1]): 1.50 × 10^-4 ± 0.11 M^-1 |
| O=C(O)Cc1ccccc1 [PAA, phenylacetic acid] | – | – | large Tm shifts when phenylacetic acid or hydrocinnamic acid were included | – |
| O=C(O)CCc1ccccc1 [hydrocinnamic acid] | – | – | large Tm shifts when phenylacetic acid or hydrocinnamic acid were included | – |
| O=C(O)/C=C/c1ccc(O)cc1 [COU, p-coumaric acid] | (p- coumaric acid, caffeic acid) produce the maximal observed thermal shifts | (p- coumaric acid, caffeic acid) produce the maximal observed thermal shifts | – | X-ray crystal structure (RPB3575): The structure of RPB3575 with p-coumaric acid (COU); X-ray crystal structure (RPA1789): Structures for RPA1789 and RPB3575 proteins in complex with p-coumaric acid (COU, 4-hydroxycinammic acid) |
